Results from the NIST ThermoML archive (doi:10.1016/j.fluid.2007.10.013).

Assay: xn = mol fraction of the nth substance listed
Conditions: 101 kPa, Liquid, Taylor dispersion method, x1 = 0

## C[C@@H](O)[C@H](N)C(=O)O [DL-threonine] + O
293.2 K
  binary diffusion coefficient: 6.91e-09 m2/s
298.2 K
  binary diffusion coefficient: 7.99e-09 m2/s
303.2 K
  binary diffusion coefficient: 9.04e-09 m2/s
313.2 K
  binary diffusion coefficient: 1.14e-08 m2/s
323.2 K
  binary diffusion coefficient: 1.43e-08 m2/s
333.2 K
  binary diffusion coefficient: 1.72e-08 m2/s

## C[C@H](O)[C@H](N)C(=O)O [DL-allothreonine] + O
293.2 K
  binary diffusion coefficient: 6.97e-10 m2/s
298.2 K
  binary diffusion coefficient: 7.96e-10 m2/s
303.2 K
  binary diffusion coefficient: 9.06e-10 m2/s
313.2 K
  binary diffusion coefficient: 1.14e-09 m2/s
323.2 K
  binary diffusion coefficient: 1.42e-09 m2/s
333.2 K
  binary diffusion coefficient: 1.72e-09 m2/s

## NC(CO)C(=O)O (centres undefined) [(.+-.)-serine] + O
293.2 K
  binary diffusion coefficient: 7.72e-10 m2/s
298.2 K
  binary diffusion coefficient: 8.8e-10 m2/s
303.2 K
  binary diffusion coefficient: 9.91e-10 m2/s
313.2 K
  binary diffusion coefficient: 1.26e-09 m2/s
323.2 K
  binary diffusion coefficient: 1.55e-09 m2/s
333.2 K
  binary diffusion coefficient: 1.88e-09 m2/s

## NC(CCO)C(=O)O (stereo not drawn) [DL-2-amino-4-hydroxybutanoic acid] + O
293.2 K
  binary diffusion coefficient: 7.26e-10 m2/s
298.2 K
  binary diffusion coefficient: 8.39e-10 m2/s
303.2 K
  binary diffusion coefficient: 9.39e-10 m2/s
313.2 K
  binary diffusion coefficient: 1.19e-09 m2/s
323.2 K
  binary diffusion coefficient: 1.47e-09 m2/s
333.2 K
  binary diffusion coefficient: 1.78e-09 m2/s
